Experiments:
Assay type in all cases: in vivo
Cydia pomonella = assay: Insecticidal test against Cydia pomonella; conditions: 168 h, 100 ppm water dilution, 0.2 ml on surface of artificial diet, eggs just before hatching, after 7 days
In short: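 A 100 ppm aqueous dilution of formulated compound (0.2 ml) was spread onto 3 g artificial diet and air-dried. About 20 near-hatching Cydia pomonella eggs on wax paper were added, four replicates per treatment. Larval mortality was recorded after 7 days.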

Tetranychus urticae = assay: Acaricidal test against Tetranychus urticae; design: key: −: almost no damage and completely no surviving mites; ±: slight damage and some few surviving mites; +: rather smaller damage and a rather fewer surviving mites than non-treatment case; ++: same as non-treatment case; conditions: 500 ppm water dilution, 15 ml sprayed over brush bean with female adults set free 6 days before; after 8 days
Protocol: About twenty female adults of Tetranychus urticae were set free on brush bean (Phaseolus vulgaris) in the primary leaf stage, which had been potted in a plastic cup for 7 days after the seeding. After 6 days, a 200-fold water dilution (500 ppm) of a test compound formulation obtained according to Formulation Example 1 or 2 was sprayed at a volume of 15 ml over the plant. After 8 days, each compound was evaluated for acaricidal activity on the following criteria.
−: almost no damage and completely no surviving mites
±: slight damage and some few surviving mites
+: rather smaller damage and a rather fewer surviving mites than non-treatment case
++: same as non-treatment case

Musca domestica = assay: Insecticidal test against Musca domestica; conditions: 24 h, 500 ppm water dilution, 0.7 ml on filter paper with sucrose, female adults, after 1 day, read-out: mortality
Protocol: In the bottom of a polyethylene cup having a diameter of 5.5 cm was placed a piece of filter paper having the same size. A 200-fold water dilution (500 ppm) of a test compound formulation obtained according to Formulation Example 1 was added dropwise at a volume of 0.7 ml on the filter paper, and about 30 mg of sucrose as a diet was uniformly placed thereon. Ten female adults of houseflies (Musca domestica) were set free in the cup, and the cup was kept covered. After 1 day, the survival of the adults was determined to determine the mortality.

Plutella xylostella = assay: Insecticidal test against Plutella xylostella; conditions: 96 h, 50 ppm water dilution sprayed over potted cabbages, 25 ml per pot, third-instar larvae, after 4 days, read-out: mortality
Protocol: To a water dilution (50 ppm) of a test compound formulation obtained according to Formulation Example 1 was added a spreading agent (New RINOU available from Nihon Noyaku K.K.) at a dilution ratio of 3000-fold. The dilution was sprayed over potted cabbages at the four to five leaf stage at a volume of 25 ml per pot. After the treated plants were air dried, ten third-instar larvae of Plutella xylostella were set free on each pot. After 4 days, the mortality was determined.

Heliothis virescens = assay: Insecticidal test against Heliothis virescens; conditions: 168 h, 100 ppm water dilution, 0.2 ml on surface of artificial diet, second-instar larvae, after 7 days
Protocol: A water dilution (100 ppm) of a test compound formulation obtained according to Formulation Example 1 was added dropwise at a volume of 0.2 ml and uniformly spread over the surface of an artificial diet having a weight of 3 g, which had been prepared in a 30 ml plastic cup. After air drying, one second-instar larva of Heliothis virescens was set free in each cup. Ten larvae were used for each treatment. After 7 days, the mortality of the larvae was determined.

Spodoptera litura = assay: Insecticidal test against Spodoptera litura; conditions: 144 h, 500 ppm water dilution, 2 ml absorbed in 13 g artificial diet, fourth-instar larvae, after 6 days
Protocol: A 200-fold water dilution (500 ppm) of a test compound formulation obtained according to Formulation Example 1 or 2 was absorbed at a volume of 2 ml in an artificial diet (Insecta LF available from Nihon Nosan K.K.) having a weight of 13 g, which had been prepared in a polyethylene cup having a diameter of 11 cm. Five fourth-instar larvae of Spodoptera litura were set free in the cup. After 6 days, the survival of the larvae was examined to determine the mortality.

Helicoverpa armigera = assay: Insecticidal test against Helicoverpa armigera; conditions: 120 h, 100 ppm water dilution, cotton leaf fragment immersed 10 seconds, third-instar larvae, after 5 days
Protocol: A cotton leaf fragment (diameter, 5 cm) was immersed for 10 seconds Lin a water dilution (100 ppm) of a test compound formulation obtained according to Formulation Example 1. This fragment was taken out from the dilution, air dried, and placed in a polyethylene cup having a diameter of 5.5 cm. One third-instar larva of Helicoverpa armigera was set free in each cup. Ten larvae were used for each treatment. After 5 days, the mortality of the larvae was determined.

SMILES	mortality at 100 µg/mL (Cydia pomonella)	acaricidal activity (Tetranychus urticae)	mortality at 500 µg/mL (Musca domestica)	mortality at 50 µg/mL (Plutella xylostella)	mortality at 100 µg/mL (Heliothis virescens)	mortality at 500 µg/mL (Spodoptera litura)	mortality at 100 µg/mL (Helicoverpa armigera)
CC(C)(C)ON=CCOCCCCOc1c(Cl)cc(OCC=C(Cl)Cl)cc1Cl [(6), 4-(2,6-dichloro-4-(3,3-dichloro-2-propenyloxy)phenoxy)butyloxyacetaldehyde O-tert-butyloxime]	≥ 80%	“−” or “±”	≥ 80%				
ClC(Cl)=CCON=CCOCCCOc1c(Cl)cc(OCC=C(Cl)Cl)cc1Cl [(33), 3-(2,6-dichloro-4-(3,3-dichloro-2-propenyloxy)phenoxy)propyloxyacetaldehyde O-(3,3-dichloro-2-propenyl)oxime]	≥ 80%			≥ 80%	≥ 80%	≥ 80%	
ClC(Cl)=CCON=CCOCCCCCCOc1c(Cl)cc(OCC=C(Cl)Cl)cc1Cl [(34), 6-(2,6-dichloro-4-(3,3-dichloro-2-propenyloxy)phenoxy)hexyloxyacetaldehyde O-(3,3-dichloro-2-propenyl)oxime]	≥ 80%			≥ 80%	≥ 80%	≥ 80%	
CC(COCCCCCOc1c(Cl)cc(OCC=C(Cl)Cl)cc1Cl)=NOCC=C(Cl)Cl [(47), 5-(2,6-dichloro-4-(3,3-dichloro-2-propenyloxy)phenoxy)pentyloxyacetone O-(3,3-dichloro-2-propenyl)oxime]	≥ 80%			≥ 80%	≥ 80%	≥ 80%	
CC(C)(C)ON=CCOCCCOc1c(Cl)cc(OCC=C(Cl)Cl)cc1Cl [(90), 3-(2,6-dichloro-4-(3,3-dichloro-2-propenyloxy)phenoxy)propyloxyacetaldehyde O-tert-butyloxime]	≥ 80%			≥ 80%	≥ 80%	≥ 80%	
CC(C)(C)ON=CCOCCCCCCOc1c(Cl)cc(OCC=C(Cl)Cl)cc1Cl [(91), 6-(2,6-dichloro-4-(3,3-dichloro-2-propenyloxy)phenoxy)hexyloxyacetaldehyde O-tert-butyloxime]	≥ 80%			≥ 80%	≥ 80%	≥ 80%	≥ 80%
CC(COCCCCOc1c(Cl)cc(OCC=C(Cl)Cl)cc1Cl)=NOC(C)(C)C [(103), 4-(2,6-dichloro-4-(3,3-dichloro-2-propenyloxy)phenoxy)butyloxyacetone O-tert-butyloxime]				≥ 80%		≥ 80%	
CC(COCCCCCOc1c(Cl)cc(OCC=C(Cl)Cl)cc1Cl)=NOC(C)(C)C [(104), 5-(2,6-dichloro-4-(3,3-dichloro-2-propenyloxy)phenoxy)pentyloxyacetone O-tert-butyloxime]		“−” or “±”		≥ 80%	≥ 80%	≥ 80%	≥ 80%
CC(C)(C)ON=CCOc1c(Cl)cc(OCC=C(Cl)Cl)cc1Cl [(131), (2,6-dichloro-4-(3,3-dichloro-2-propenyloxy)phenoxy)acetaldehyde O-tert-butyloxime]						≥ 80%	
CC(C)(C)ON=CCCOc1c(Cl)cc(OCC=C(Cl)Cl)cc1Cl [(133), 3-(2,6-dichloro-4-(3,3-dichloro-2-propenyloxy)phenoxy)propionaldehyde O-tert-butyloxime]						≥ 80%	
CC(C)(C)ON=CCCCCCOc1c(Cl)cc(OCC=C(Cl)Cl)cc1Cl [(134), 6-(2,6-dichloro-4-(3,3-dichloro-2-propenyloxy)phenoxy)hexanal O-tert-butyloxime]				≥ 80%	≥ 80%	≥ 80%	
CC(COCCCCCOc1c(Cl)cc(OCC=C(Cl)Cl)cc1Cl)=NOCC(Cl)(Cl)Cl [(173), 5-(2,6-dichloro-4-(3,3-dichloro-2-propenyloxy)phenoxy)pentyloxyacetone O-(2,2,2-trichloroethyl)oxime]		“−” or “±”	≥ 80%				
CC(COCCOCCOc1c(Cl)cc(OCC=C(Cl)Cl)cc1Cl)=NOC(C)(C)C [(203), 2-(2-(2,6-dichloro-4-(3,3-dichloro-2-propenyloxy)phenoxy)-ethoxy)ethoxyacetone O-tert-butyloxime]			≥ 80%			≥ 80%	
CON=Cc1ccc(OCCCCOc2c(Cl)cc(OCC=C(Cl)Cl)cc2Cl)cc1 [(306), 4-(4-(2,6-dichloro-4-(3,3-dichloro-2-propenyloxy)phenoxy)butyloxy)benzaldehyde O-methyloxime]	≥ 80%	“−” or “±”					
CCON=C(CC)c1ccc(OCCCOc2c(Cl)cc(OCC=C(Cl)Cl)cc2Cl)cc1 [(318), 4′-(3-(2,6-dichloro-4-(3,3-dichloro-2-propenyloxy)phenoxy)propyloxy)propiophenone O-ethyloxime]		“−” or “±”	≥ 80%				≥ 80%
CCCON=Cc1ccc(COc2c(Cl)cc(OCC=C(Cl)Cl)cc2Cl)cc1 [(327), 4-(2,6-dichloro-4-(3,3-dichloro-2-propenyloxy)phenoxymethyl)benzaldehyde O-propyloxime]		“−” or “±”		≥ 80%			≥ 80%
CCCC=NOCCCCCOc1c(Cl)cc(OCC=C(Cl)Cl)cc1Cl [(542), butanal O-(5-(2,6-dichloro-4-(3,3-dichloro-2-propenyloxy)phenoxy)pentyl)oxime]		“−” or “±”	≥ 80%				
CC(=NOCCCCCOc1c(Cl)cc(OCC=C(Cl)Cl)cc1Cl)C(C)C [(582), 3-methyl-2-butanone O-(5-(2,6-dichloro-4-(3,3-dichloro-2-propenyloxy)phenoxy)pentyl)oxime]		“−” or “±”					≥ 80%
CC(CC(C)C)=NOCCCCCCOc1c(Cl)cc(OCC=C(Cl)Cl)cc1Cl [(589), 4-methyl-2-pentanone O-(6-(2,6-dichloro-4-(3,3-dichloro-2-propenyloxy)phenoxy)hexyl)oxime]		“−” or “±”		≥ 80%			
CCON=C(C)COc1ccc(OCC=CCl)cc1 [(A), 4-(3-chloro-2-propenyloxy)phenoxyacetone O-ethyloxime, reference compound]		+	0%	0%		0%	0%
CC(C)CCON=Cc1ccc(Oc2ccccc2)cc1 [(B), 4-phenoxy-benzaldehyde O-(3-methylbutyl)oxime, reference compound]		+	0%			0%	

Source: patent publication US6437184B1, “Oxime compounds, their use, and intermediates for their production” (Sumitomo Chemical Company, Limited, priority 1997, dated 2002)
